Literature values as cited in patent publication US20200018753A1, “NON-INVASIVE BIOMARKER TO IDENTIFY SUBJECT AT RISK OF PRETERM DELIVERY” (NYU Winthrop Hospital, priority 2012, published 2020).

Test system: Prostaglandin D2 formation
Conditions: IL-1β-stimulated SK-N-SH neuronal cells; presumably by inhibiting cyclooxygenase (COX), especially COX-2

## Oc1ccc(C=Cc2cc(O)cc(O)c2)cc1 [Resveratrol]
  formation of Prostaglandin D2: reduce formation of Prostaglandin D2
